Test results as given in EP0244803B1, “Novel dopamine beta hydroxylase inhibitors” (MERRELL DOW PHARMACEUTICALS INC., priority 1986, dated 1987).

Columns and labels:
DBH = experiment: In vivo DBH inhibition: heart dopamine level in spontaneously hypertensive rats; conditions: Treated SHR's, 50 mg/kg, IP, 3 hours post dose; mean ± standard deviation; micrograms of dopamine per gram of heart tissue; *** p<.001 vs control
Method: In this test spontaneously hypertensive rats are dosed (i.p.) at 50 mg per kilogram of body weight and sacrificed three hours later.

[1] = test system: spontaneously hypertensive rats (SHR's); experiment: Antihypertensive effect: blood pressure monitored continuously in SHR's after ip administration; assay type: in vivo; conditions: 50 mg/kg; for Max Change MBP: mean difference ± standard deviation; for Max Change MBP (percent, in parentheses): percent change printed in parentheses
Method: The test compound is administered intraperitoneally (ip) to rats and the blood pressure monitored continuously.

[2] = molecular target: T1, dopamine beta-hydroxylase (DBH) (Bos taurus, UniProt P15101); experiment: In vitro DBH inhibition: conversion of tyramine to octopamine, oxygen uptake measured with a polarographic electrode; assay type: biochemical; conditions: pH 5, 37°C preferred; concentration at which DBH activity was halved; read-out: IC₅₀
T1 sequence (P15101 33-610): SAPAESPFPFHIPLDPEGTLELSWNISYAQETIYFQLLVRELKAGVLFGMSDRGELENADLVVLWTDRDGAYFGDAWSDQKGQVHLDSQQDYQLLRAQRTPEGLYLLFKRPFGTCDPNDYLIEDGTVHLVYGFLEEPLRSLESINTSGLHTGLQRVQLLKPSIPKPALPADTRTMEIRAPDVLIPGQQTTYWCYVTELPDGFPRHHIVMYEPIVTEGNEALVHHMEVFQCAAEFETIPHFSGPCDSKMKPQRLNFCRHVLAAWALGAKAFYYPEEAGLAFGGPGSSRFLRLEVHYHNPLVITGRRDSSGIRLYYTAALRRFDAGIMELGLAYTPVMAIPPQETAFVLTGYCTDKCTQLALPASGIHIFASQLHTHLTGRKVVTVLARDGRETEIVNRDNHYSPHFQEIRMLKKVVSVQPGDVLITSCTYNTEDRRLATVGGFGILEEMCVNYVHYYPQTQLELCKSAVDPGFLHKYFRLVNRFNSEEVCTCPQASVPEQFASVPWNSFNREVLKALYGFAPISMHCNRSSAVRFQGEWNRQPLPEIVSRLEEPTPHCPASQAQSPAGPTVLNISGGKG
Method: The DBH inhibitory properties of the compounds of this invention can readily be determined in vitro by standard and well known procedures for assaying conversion of tyramine to octopamine in the presence of dopamine beta-hydroxylase. Enzymatic oxygenation by DBH is determined in aqueous solution in the presence of molecular oxygen, an electron donor such as ascorbate, and the necessary cofactors for the enzyme at pH of 5 and a temperature of 20°-40°C, preferably 37°C. The test compound is added at the desired concentration, and the system is incubated.

Compound	Heart DA (DBH)	Max Change MBP [1]	Max Change MBP (percent, in parentheses) [1]	IC50 [2]
S=c1[nH]ccn1Cc1cccs1 [Compound 1, 1,3-Dihydro-(2-thienylmethyl)-2H-imidazole-2-thione]	Treated .066±.005*** µg/g	-30±21 mmHg	18%	–
S=c1[nH]ccn1Cc1ccsc1 [Compound 2, 1,3-Dihydro-1-(3-thienylmethyl)-2H-imidazole-2-thione]	Treated .066±.012*** µg/g	-21±27 mmHg	12%	–
S=c1[nH]ccn1Cc1ccco1 [Compound 3, 1-(2-Furanylmethyl)-1,3-dihydro-2H-imidazole-2-thione]	Treated .079±.004*** µg/g	–	–	–
1-[(Fluoro-2-thienyl)methyl]-1,3-dihydro-2H-imidazole-2-thione [Compound 6]	Treated .045±.005*** µg/g	-42±17 mmHg	25%	2.9 µM
Cc1ccc(Cn2cc[nH]c2=S)s1 [Compound 5, 1,3-Dihydro-1-[(5-methyl-2-thienyl)methyl]-2H-imidazole-2-thione]	Treated .048±.004*** µg/g	-37±19 mmHg	10%	6 µM
S=c1[nH]ccn1Cc1ccc(Cl)s1 [Compound 4, 1-[(5-Chloro-2-thienyl)methyl]-1,3-dihydro-2H-imidazole-2-thione]	Treated .046±.009*** µg/g	-22±5 mmHg	13%	–
